According to PMC7253177, “Gain of channel function and modified gating properties in TRPM3 mutants causing intellectual disability and epilepsy” (eLife, 2020):

Biological target: T1, TRPM3 P1090Q mutant (Homo sapiens, UniProt Q9HCF6, P1115Q)
T1 sequence (Q9HCF6 1-1325 isoform Q9HCF6-10 P1090Q): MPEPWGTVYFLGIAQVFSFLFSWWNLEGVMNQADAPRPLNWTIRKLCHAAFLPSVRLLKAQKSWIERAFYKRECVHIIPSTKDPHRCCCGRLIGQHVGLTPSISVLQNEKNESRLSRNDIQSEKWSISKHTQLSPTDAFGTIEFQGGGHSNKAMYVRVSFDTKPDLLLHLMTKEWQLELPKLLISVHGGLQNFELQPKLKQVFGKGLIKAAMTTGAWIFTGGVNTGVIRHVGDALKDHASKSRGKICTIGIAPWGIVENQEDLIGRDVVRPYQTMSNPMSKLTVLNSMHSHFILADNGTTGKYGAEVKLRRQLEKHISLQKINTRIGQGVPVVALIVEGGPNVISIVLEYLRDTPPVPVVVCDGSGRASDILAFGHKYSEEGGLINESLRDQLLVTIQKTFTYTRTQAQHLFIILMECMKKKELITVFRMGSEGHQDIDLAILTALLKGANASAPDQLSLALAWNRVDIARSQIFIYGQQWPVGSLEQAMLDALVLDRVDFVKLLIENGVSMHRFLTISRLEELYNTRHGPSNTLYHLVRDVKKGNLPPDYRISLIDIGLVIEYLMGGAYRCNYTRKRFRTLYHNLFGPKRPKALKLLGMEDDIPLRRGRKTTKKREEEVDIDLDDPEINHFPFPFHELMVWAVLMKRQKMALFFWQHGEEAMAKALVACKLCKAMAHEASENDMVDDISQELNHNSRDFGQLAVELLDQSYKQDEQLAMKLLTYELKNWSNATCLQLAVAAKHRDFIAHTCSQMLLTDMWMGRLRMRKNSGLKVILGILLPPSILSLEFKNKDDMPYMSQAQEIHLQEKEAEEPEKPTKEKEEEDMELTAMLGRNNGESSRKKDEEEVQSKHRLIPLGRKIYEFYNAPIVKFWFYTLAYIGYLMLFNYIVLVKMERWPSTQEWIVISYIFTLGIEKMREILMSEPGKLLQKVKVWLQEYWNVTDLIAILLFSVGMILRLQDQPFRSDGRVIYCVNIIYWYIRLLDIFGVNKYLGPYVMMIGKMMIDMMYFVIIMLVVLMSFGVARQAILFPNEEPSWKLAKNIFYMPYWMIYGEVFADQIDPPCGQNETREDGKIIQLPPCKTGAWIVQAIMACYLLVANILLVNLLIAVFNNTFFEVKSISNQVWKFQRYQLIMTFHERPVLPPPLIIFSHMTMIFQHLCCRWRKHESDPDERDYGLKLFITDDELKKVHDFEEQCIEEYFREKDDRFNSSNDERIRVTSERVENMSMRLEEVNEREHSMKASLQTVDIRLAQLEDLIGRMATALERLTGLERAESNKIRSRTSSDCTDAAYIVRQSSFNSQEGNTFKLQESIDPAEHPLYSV
Test: Fura-2-based calcium imaging, HEK293T cells transfected with P1090Q hTRPM3
Type: cell-based
Set-up: expressed in transfected cells; host or cells: HEK293T
Method: HEK293T cells ([Graham et al., 1977]) were cultured as described previously ([Vriens et al., 2007]) and used up in passage number 14. HEK293T cells were tested for the lack of mycoplasma and transiently transfected with 2 µg of DNA using TransIT transfection reagent (Mirus) 36–48 hr before the measurements. In case of co-cultures a ratio of 1:1 between hTRPM3-YFP WT and mutants-YFP DNA was used.
All mutants were obtained by the standard PCR overlap extension method using hTRPM3 directly linked to YFP from pCAGGS/IRES-GFP vector ([Vriens et al., 2007]). Accuracy of all mutant sequences was verified by sequencing of the entire DNA constructs.
Changes in intracellular calcium concentration were monitored using ratiometric Fura-2-based fluorimetry. Cells were loaded with 2 µM Fura-2-acetoxymethyl ester (Alexis Biochemicals) for 30 min at 37°C. Fluorescence was measured during alternating illumination at 340 and 380 nm using Eclipse Ti (Nikon) fluorescence microscopy system, and absolute calcium concentration was calculated from the ratio of the fluorescence signals at these two wavelengths (R = F340/F380) as [Ca^2+]=Km × (R-Rmin)/(Rmax-R), where Km, Rmin and Rmax were estimated from in vitro calibration experiments with known calcium concentrations. The bath solution contained (in mM) 138 NaCl, 5.4 KCl, 2 CaCl2, 2 MgCl2, 10 glucose, and 10 HEPES, pH 7.4. […]

Molecule	Effect on basal [Ca2+]i (primidone 100 µM, isosakuranetin 50 µM)	PS concentration giving robust calcium responses (as low as) [µM]
CCC1(c2ccccc2)C(=O)NCNC1=O [primidone]	reduced [Ca^2+]i	–
pregnenolone sulfate [PS]	–	1
